Measurements reported in patent publication US20150004697A1, “METHOD FOR PRODUCING MULTIPOLAR CELL” (TOAGOSEI CO., LTD., priority 2011, published 2015).

Key:
Assay type in all cases: cell-based
[1] = test system: human alveolar basal epithelial adenocarcinoma cells, A549; experiment: Multipolarity-inducing activity assay 3 (A549 cells synchronized in G2 phase (or M phase)); conditions: peptide 10 μM; for fluorescence microscope observation of centrosomes and multipolar spindles: DAPI, anti-tubulin and anti-centrin antibody; for Multipolar level (%): 100 M-phase cells
Experimental: Some of the sample peptides obtained in Example 1 were tested for multipolarity-inducing activity against target cultured tumor cells. Details of the assay are as described below. As the tumor cells tested, cells forming a […] (human alveolar basal epithelial adenocarcinoma cells, A549) were used. The cell line was cultured in the same manner as Example 2 described above. The resulting cultured tumor cells were synchronized in the G2 phase (or M phase) in the same manner as Example 3 described above. Similarly to Examples 2 and 3 described above (although the number of M-phase cells was 100), the presence of multipolarity was observed by immunofluorescence under fluorescence microscope. In addition, using centrin-2 as a marker for centrosomes (centrioles), the cells were tested for the presence of centrin-2 (i.e. the presence of centrosomes) by immunofluorescence with an anti-centrin-2 antibody (primary antibody) to identify the centrin-2 and a fluorescent dye-labeled secondary antibody to identify the primary antibody.

[2] = test system: HeLa cell line (HeLa S3); experiment: Multipolarity-inducing activity assay 2 (cells synchronized in G2 phase (or M phase) by nocodazole); conditions: for Multipolar level (%): peptide 10 μM for 4 hours with nocodazole, then 2 hours without, % of M-phase cells; for Multipolar level (%) / Number of multipolar cells: HeLa S3 synchronized in G2 phase (M phase); for Number of multipolar cells / fluorescence microscope observation of centrosomes and multipolar spindles: peptide 10 μM; for Number of multipolar cells: count among 75 M-phase cells; for fluorescence microscope observation of centrosomes and multipolar spindles: HeLa synchronized in G2 phase (or M phase) by nocodazole, DAPI and anti-tubulin antibody
Experimental: The same sample peptides as those used in Example 2 above were used and tested for multipolarity-inducing activity against cultured tumor cells synchronized in the G2 phase (or M phase). Details of the assay are as described below.
As the tumor cells tested, a HeLa cell line (HeLa S3) was used. The cell line was cultured under the same conditions as Example 2 and seeded at about 3×10^4 cells per well in an 8-well slide glass. Thymidine was added to the culture medium to a final concentration of 2.5 mM. Incubation was carried out at 37° C. under 5% CO2 for 18 hours. The culture medium was exchanged to remove thymidine and incubation was carried out for 6 more hours. Subsequently, nocodazole was added to a final concentration of 0.1 μg/mL and incubation was carried out for 16 hours. By such addition of nocodazole, the cells being cultured were synchronized in the G2 phase (M phase) of the cell cycle.
After the 16 hours of incubation, without exchanging the culture medium (i.e. with nocodazole being contained), one of the sample peptides was added to each well to a peptide concentration in the well of 10 μM and incubation was carried out for 4 hours. Subsequently, the culture medium was exchanged and incubation was continued for 2 more hours without nocodazole or the sample peptide.
After the 2 hours of incubation, in the same manner as Example 2, the presence of multipolarity was observed by immunofluorescence under fluorescence microscope.

[3] = test system: HeLa cell line (HeLa S3); experiment: Multipolarity-inducing activity assay 1 (cells synchronized in G1 phase by double thymidine block); conditions: peptide 10 μM, 6 hours of incubation; for Number of multipolar cells: HeLa S3 synchronized in G1 phase, count among the M-phase cells observed
Experimental: Some of the sample peptides obtained in Example 1 were tested for multipolarity-inducing activity against target cultured tumor cells. Details of the assay are as described below.
As the tumor cells tested, a HeLa cell line (HeLa S3) was used. The cell line was cultured beforehand in a DMEM medium (i.e. Dulbecco MEM medium (DMEM medium, a Gibco product) containing 10% fetal bovine serum (FBS, a Gibco product), 2 mM of L-glutamine, 50 unit/mL of penicillin, and 50 μg/mL of streptomycin), and seeded at about 3×10^4 cells per well in an 8-well slide glass. Thymidine was added to the culture medium to a final concentration of 2.5 mM. Incubation was carried out at 37° C. under 5% CO2 for 16 hours. The culture medium was exchanged to remove thymidine and incubation was carried out for 8 more hours. Subsequently, thymidine was added again to a final concentration of 2.5 mM and incubation was carried out for 16 hours.
By such double thymidine block, the cells being cultured were synchronized in the G1 phase of the cell cycle. After such synchronization treatment, the culture medium was exchanged to remove thymidine and incubation was carried out for 2 more hours. Subsequently, one of the sample peptides was added to each well. In this example, one of Samples 1, 4, 8, 9, 12 and 14 was added to a peptide concentration in the well of 10 μM.
After a sample peptide was added as described above, the 8-well slid glass was incubated under the aforementioned conditions for 6 hours.
After 6 hours of incubation, the presence of multipolarity was observed by immunofluorescence under fluorescence microscope. In particular, after 6 hours of incubation following the addition of a sample peptide, the cultured cells were subjected to nuclear staining with DAPI (4′,6-diamidino-2-phenylindole), and using α-tubulin as a marker for spindles, the cells were tested for the presence of tubulin (i.e., the presence of spindles) by immunofluorescence with an anti-tubulin antibody (primary antibody) to identify the tubulin and a fluorescent dye (ALEXA FLUOR(registered trademark) 555)-labeled secondary antibody to identify the primary antibody.

Sequence | fluorescence microscope observation of centrosomes and multipolar spindles [1] | Multipolar level (%) [2] [%] | Number of multipolar cells [2] | Number of multipolar cells [3] | Multipolar level (%) [1] [%] | fluorescence microscope observation of centrosomes and multipolar spindles [2] | Multipolar level (%) ([3]; HeLa S3 synchronized in G1 phase (double thymidine block), % multipolar cells relative to M-phase cells)
CSYEKRPMC [Sample 11] | 3 or more (typically 4 or more, e.g. 8 or more) centrosomes formed in many cells | – | – | – | – | – | –
CLAPSPSKCKKRFLRKNDRKKR (CLAPSPSKCKKRTLRKNDRKKR) [Sample 14] | – | 61.3 | 46 | 10 | 38 | – | –
CTLNSHSNC [Sample 6] | 3 or more (typically 4 or more, e.g. 8 or more) centrosomes formed in many cells | – | – | – | 30 | – | –
CPRPPSLEC [Sample 9] | – | 73.3 | 55 | 19 | – | 3 or more centrosomes formed in many cells and a cell with a particularly high degree of multipolarity | –
CEISAKRTC [Sample 7] | – | – | – | – | 36 | – | –
CTGHWASEC [Sample 10] | – | – | – | – | 31 | – | –
CHILHAQAC [Sample 8] | – | 68.0 | 51 | 11 | 36 | – | –
CSSATGKSC [Sample 1] | – | 62.7 | 47 | 7 | – | – | 8.3
CGHRPYQYC [Sample 4] | – | 62.7 | 47 | 6 | 36 | – | –
CLAPSPSKC [Sample 2] | – | – | – | – | 38 | – | –
CLTKSYTSC [Sample 12] | – | 64.0 | 48 | 13 | – | 3 or more centrosomes formed in many cells | –
